Source: patent US20060014938A1, “Stable aqueous colloidal lanthanide oxides” (priority 2004, published 2006)

Experiments:
[1] = Text: Table 1 summarizes characteristics of gadolinium DTPA (a previously described MRI contrast agent) and of compositions that are gadolinium oxide complexed with reduced dextran as provided herein, comparing characteristics of these to an ideal vascular contrast agent.
[2] = MRI of tubes using a T1 pulse sequence; conditions: 1.0 and 0.1 nM Gd, same molar concentrations
Protocol: Colloidal gadolinium Oxide prepared according to Example 9, and Gadolinium DTPA, each at a concentration of each of 1.0 and 0.1 nM Gd, were added to a volume of 1 mL in a 2 mL screw cap plastic tube, and were subjected to MRI using a T1 pulse sequence.
Row 3 is water, a negative control.

[3] = test system: pig mesenchymal stem cells (MSC); assay: Cell viability test; format: cell-based
Protocol: FIG. 1 is a set of photomicrographs showing results from a cell viability test using Pig MSCs.
In all experiments colloid was incubated with cells in growth medium for 12 hours (at a concentration of 1 mg Eu/mL) which was then washed away.

[4] = Size and aqueous stability of colloid after crosslinking or surface modification; format: physicochemical
Protocol: The dextran covered lanthanide colloid was prepared according to Example 6 except that lanthanum chloride was substituted for samarium chloride. In a fume hood, to 40 mL of colloid was added 100 mL of 5M NaOH, 40 mL distilled water and 40 mL epichlorohydrin. The mixture was incubated at room temperature for about 24 hours with shaking to promote interaction of the organic phase (epichlorohydrin) and aqueous phase which includes the dextran covered colloid. Epichlorohydrin was removed by placing the colloid in a dialysis bag and dialyzing against 20 changes of distilled water of 20 liters each. After dialysis, the product was filtered through a 0.2 micron filter and stored at 4° C. The size and aqueous stability of the colloid suspension were unaffected by this treatment.
The reduced dextran covered colloid was prepared essentially according to Example 10 except that lutetium chloride was substituted for gadolinium chloride. In a fume hood, to 40 mL of colloid was added 100 mL of 5M NaOH, 40 mL of distilled water and 40 mL of epichlorohydrin. The mixture was incubated at room temperature for about 24 hours with shaking to promote interaction of the organic phase (epichlorohydrin) and aqueous phase which includes the dextran covered colloid. Epichlorohydrin was removed by placing the colloid in a dialysis bag and dialyzing against 5 changes of distilled water of 4 liters each. […]

[5] = test system: mice; conditions: cited from earlier work

O=C([O-])CN(CCN(CC(=O)[O-])CC(=O)[O-])CCN(CC(=O)[O-])CC(=O)[O-].[Gd+3] [Gadolinium DTPA]
Autoclavable without excipients [1]: Yes
Non toxic at vast excess [1]: Yes
potency as contrast agent (T1 weighted image) [2]: equally potent

C[CH2][Hg][S]c1ccccc1C(=O)[O-].[Na+] [thimerasol]
state of cells (FIG. 1 Panel C) ([3]; added to growth medium, after 24 hours): severe deterioration
time to cell death ([3]; positive control): less than 24 hours

Gadolinium Oxide Colloid Modified with Biotin [Example 22]
size and aqueous stability of the colloid suspension after the treatment [4]: unaffected

[Cl][Gd]([Cl])[Cl] [gadolinium chloride]
most common lesions after injection [5]: mineral emboli in capillaries, accumulation of mineral in the mononuclear phagocytic system, hepatocellular necrosis, and lymphoid depletion, necrosis and mineralisation in the spleen
